We go through five molecules from publication PMC4186413, “Identification of metabolic pathways and enzyme systems involved in the in vitro human hepatic metabolism of dronedarone, a potent new oral antiarrhythmic drug” (Pharmacology Research & Perspectives, 2014).

Data set [1] has as its system cryopreserved human hepatocytes in primary culture. Put plainly: Unchanged drug disappearance / intrinsic metabolic clearance in primary cultures of cryopreserved human hepatocytes. The format is in vitro ADME. Particulars: for In vitro intrinsic hepatic clearance, Mean ± SD: mean of four hepatocyte preparations. On the procedure: Cryopreserved human hepatocytes were plated on 48-well collagen-coated plastic plates in a chemically defined medium adapted from Isom and Georgoff ([1984]), consisting of a 50/50 (v/v) mixture of Ham F12/Williams E medium supplemented with 10% decomplemented fetal calf serum, 10 mg/L insulin, 0.8 mg/L glucagon and antibiotics (100 IU penicillin and 100 μg/mL streptomycin). After 4–6 h at 37°C in a 5% CO2 and 100% humidified atmosphere, period during which hepatocytes attached to the collagen-matrix, the plating medium was removed and replaced by the same serum-free culture medium supplemented with HEPES (3.6 g/L), ethanolamine (4 mg/L), transferrin (10 mg/L), linoleic acid albumin (1.4 mg/L), glucose (252 mg/L), sodium pyruvate (44 mg/L), ascorbic acid (50 mg/L), arginine (104 mg/L), and L-glutamine (0.7 g/L).
Experiments were performed in 48-well plastic plates coated with rat tail Collagen type I. Plates were seeded with 0.16 × 10^5 hepatocytes per well in a final volume of 0.2 mL and incubated at 37°C under a 95% humidified air and 5% CO2 atmosphere. After 3 h during which cells were allowed to attach, the medium was renewed with 0.1 mL serum-free medium. Then, the investigated drug or metabolic probe(s) were added directly to the incubation medium in the absence or the presence of inhibitors such as either ketoconazole as a specific and potent CYP3A inhibitor (3 μmol/L final concentration), clorgyline (0.25 μmol/L final concentration) as a potent MAO-A inhibitor or ABT as a potent but nonselective CYP isoforms inhibitor (1 mmol/L final concentration) (Fabre et al. [1988]; Bourrié et al. [1996]; Klieber et al. [2008]). Regardless of the final concentration investigated, the final solvent (DMSO) concentration never exceeded 0.2% (v/v).
To determine the metabolism of the different compounds (metabolic probes, dronedarone, N-debutyl-dronedarone, propanoic acid-dronedarone, phenol-dronedarone, and C-dealkyl-dronedarone), kinetic studies were performed over 0–24 h. For each time point, 0.1 mL of acetonitrile was added to the specific well for protein precipitation, and both extracellular medium and the cell fraction were scraped together. Cell extracts were transferred to a glass tube and stored at −20°C until analysis. Before analysis, cell homogenates were sonicated for a few seconds, homogenized and centrifuged at 6000 g for 10 min. Supernatant fluids were then analyzed for the different drugs and their specific metabolites.
LC/MS-MS analysis was performed using an Acquity UPLC System I-Class equipped with a Waters Acquity UPLC BEH C18 column (2.1 mm i.d. × 100 mm length, 1.7 μm particle size) coupled to a Xevo TQS mass spectrometer (all from Waters, Milford, MA) used in electrospray ion positive mode.
In human hepatocytes, the intrinsic in vitro metabolic clearances (Clint) were calculated using WinNonLin PK analysis software version 5.2. All disappearance kinetics data were fitted with a model using the following equation: [drawing 2] where ke is the elimination rate constant expressed in h^−1, and V is the incubation volume expressed in mL normalized to 10^6 hepatocytes. The equation was applied to the initial (linear) part of the concentration–time curve.
The kinetics of drug disappearance were investigated using four different cryopreserved human hepatocyte preparations in primary cultures following incubation with either dronedarone or its metabolites at a concentration of 5 μmol/L. Incubations were performed either in the absence, that is control conditions, or in the presence of enzyme system inhibitors such as 3 μmol/L ketoconazole (specific and potent inhibitor of CYP3A4/5), 1 mmol/L ABT (a potent and […] inhibitor of total CYPs), or 0.25 μmol/L clorgyline (a potent MAO-A inhibitor) (Dorris [1982]). Kinetic studies were performed over 24 h.

Data set [2] relates to CYP1A1, -1A2, -2A6, -2B6, -C8, -2C9, -2C18, -2C19, -2D6, -2E1, -3A4, and -3A5. Put plainly: Oxidation by the panel of recombinant human CYP isoforms. Type of data set: in vitro ADME. To be noted: 100 pmol/mL, 5 μmol/L, 30 min, NADPH; for Oxidation by the other CYP isoforms of the panel: isoforms other than those named for the drug. The source says:
Recombinant human CYPs (Supersomes™; BD Gentes, Woburn, MA: CYP1A1, CYP1A2, CYP2A6, CYP2B6, CYP2C8, CYP2C9, CYP2C18, CYP2C19, CYP2D6, CYP2E1, CYP3A4 and CYP3A5), FMOs (Supersomes™: FMO1, FMO3, FMO5), MAOs (Supersomes™: MAO-A and MAO-B), and UGTs (Supersomes™: UGT1A1, UGT1A3, UGT1A4, UGT1A6, UGT1A7, UGT1A8, UGT1A9, UGT1A10, UGT2B4, UGT2B7, UGT2B15, and UGT2B17) expressed in baculovirus-infected insect cells and control microsomes from insect cells infected with wild-type baculovirus were all obtained from BD Gentest (Woburn, MA).
For oxidative pathways, the assay mixture was composed of human liver microsomes (1 mg·m·L^−1) or microsomes of baculovirus-infected cells expressing human enzymes (100 pmol·mL^−1 for CYPs and 1 mg·mL^−1 for FMOs and MAOs), nicotinamide adenine dinucleotide phosphate reduced form (NADPH) (1 mmol/L), 100 mmol/L potassium phosphate (pH 7.4), and 5 μmol/L of the investigated compound dissolved in DMSO in a final volume of 500 μL.
The final concentration of DMSO in the reaction mixture was less than 1% (v/v). Initial rate conditions with respect to time and protein concentration for both the disappearance of unchanged drug and the formation of respective metabolites were established in preliminary studies. The enzyme reaction was initiated by addition of NADPH (10 mmol/L aqueous solution) to achieve a final concentration of 1 mmol/L for oxidative CYP- and FMO-dependent reactions or by the drug for MAO-dependent reactions, incubated at 37°C and stopped after 0–30 min by addition of one volume of ice-cold acetonitrile.
In human liver microsomes and recombinant isoforms, the percentage of metabolism was determined on the basis of unchanged drug disappearance, using the following equation [drawing 1] where UDt = 30 min represents the unchanged drug peak area after a 30-min incubation period and UDt = 0, the unchanged drug peak area at t = 0.
To identify the specific isoforms that are capable of oxidizing dronedarone and its metabolites, assays were performed using c-DNA-expressed isoforms belonging to CYP- (CYP1A1, -1A2, -2A6, -2B6, -C8, -2C9, -2C18, -2C19, -2D6, -2E1, -3A4, and -3A5), FMO- (FMO-1, -3, and -5) and MAO- (MAO-A and MAO-B) families.
Figure 5 Contribution of individual CYPs, FMOs and MAOs to the oxidation of dronedarone and its metabolites. Individual CYPs (100 pmol/mL), FMOs (1 mg/mL) and MAOs (1 mg/mL) were incubated with either dronedarone (A) or its metabolites, N-debutyl-dronedarone (B), propanoic acid-dronedarone (C), and phenol-dronedarone (D), at a concentration of 5 μmol/L, for 30 min at 37°C in the presence of NADPH, except for MAOs where incubations were performed in the absence of cofactor. Unchanged drugs were quantified by LC/MS-MS relative to the synthetic references as described in Materials and Methods. Data are expressed as the percentage of oxidation.

Where [3] appears, read: hepatocyte preparation BD-91, 5 μmol/L.
The mark [4] stands for this setting: hepatocyte preparation BD-296, 5 μmol/L.
Where [5] appears, read: hepatocyte preparation HU-1359, 5 μmol/L.
Where [6] appears, read: hepatocyte preparation IVT-IBG, 5 μmol/L.

On to `CCCCc1oc2ccc(NS(C)(=O)=O)cc2c1C(=O)c1ccc(OCCC(=O)O)cc1` [Propanoic acid-dronedarone], for which the “In vitro intrinsic hepatic clearance” value in data set [1] (setting [3]) was 0.06 mL·h^−1·10^6 cells; in data set [1] (setting [4]), 0.17 mL·h^−1·10^6 cells; in data set [1] (setting [5]), 0.20 mL·h^−1·10^6 cells; in data set [1] (setting [6]), 0.14 mL·h^−1·10^6 cells. Besides, in data set [1] (5 μmol/L), the “In vitro intrinsic hepatic clearance, Mean ± SD” value stood at 0.14 ± 0.05 mL·h^−1·10^6 cells. Moreover, the “Oxidation by the other CYP isoforms of the panel” value (from here on “Oxidation”) in data set [2] is “Neither other CYPs, nor FMOs and MAOs metabolized propanoic acid-dronedarone to any significant extent”.
For `CCCCc1oc2ccc(NS(C)(=O)=O)cc2c1C(=O)c1ccc(OCCCN(CCCC)CCCC)cc1.Cl` [Dronedarone, N-(2-Butyl-3-(4-(3-(dibutylamino)propoxy)benzoyl)-5-benzofuranyl)methanesulfonamide, hydrochloride], in data set [1] (5 μmol/L, control conditions), the “Drug metabolized within 6 h of incubation” value is on record as “more than 80%”. Further, the “In vitro intrinsic hepatic clearance” value in data set [1] (setting [3]) is recorded as 0.49 mL·h^−1·10^6 cells; in data set [1] (setting [4]), 0.58 mL·h^−1·10^6 cells; in data set [1] (setting [5]), 0.14 mL·h^−1·10^6 cells; in data set [1] (setting [6]), 0.10 mL·h^−1·10^6 cells. Further, in data set [1] (5 μmol/L), the “In vitro intrinsic hepatic clearance, Mean ± SD” value was found to be 0.33 ± 0.21 mL·h^−1·10^6 cells. Also, the “Oxidation” value in data set [2] is listed as “less than 15%”.
Regarding `CCCCNCCCOc1ccc(C(=O)c2c(CCCC)oc3ccc(NS(C)(=O)=O)cc23)cc1` [N-debutyl-dronedarone], the “In vitro intrinsic hepatic clearance” value came out at 0.18 mL·h^−1·10^6 cells in data set [1] (setting [3]), 0.10 mL·h^−1·10^6 cells in data set [1] (setting [4]), 0.10 mL·h^−1·10^6 cells in data set [1] (setting [5]) and 0.08 mL·h^−1·10^6 cells in data set [1] (setting [6]). The “Mean maximal concentration of metabolite formed” value in data set [1] (hepatocytes incubated with 5 μmol/L dronedarone, control conditions without inhibitors) is “around 0.6 μmol/L”. The “In vitro intrinsic hepatic clearance, Mean ± SD” value in data set [1] (5 μmol/L) was determined as 0.13 ± 0.03 mL·h^−1·10^6 cells. Besides, in data set [2], the “Oxidation” value is “Neither other CYPs nor FMOs metabolized N-debutyl-dronedarone to any significant extent”.
As for `CCCCc1oc2ccc(NS(C)(=O)=O)cc2c1C(=O)c1ccc(O)cc1` [Phenol-dronedarone], the “In vitro intrinsic hepatic clearance” value in data set [1] (setting [3]) was 0.44 mL·h^−1·10^6 cells; in data set [1] (setting [4]) it was 0.70 mL·h^−1·10^6 cells; in data set [1] (setting [5]), 0.57 mL·h^−1·10^6 cells; in data set [1] (setting [6]), 0.75 mL·h^−1·10^6 cells. The “In vitro intrinsic hepatic clearance, Mean ± SD” value is recorded as 0.62 ± 0.12 mL·h^−1·10^6 cells in data set [1] (5 μmol/L) and 0.61 ± 0.12 mL·h^−1·10^6 cells in data set [1] (5 μmol/L, listed as phenol-dronedarone). In addition, the “Oxidation” value in data set [2] is recorded as “contributed to a very small extent”.
In the case of `CCCCN(CCCC)CCCOc1ccc(C(=O)O)cc1` [C-dealkyl-dronedarone], the “In vitro intrinsic hepatic clearance” value stood at 0.003 mL·h^−1·10^6 cells in data set [1] (setting [3]), 0.002 mL·h^−1·10^6 cells in data set [1] (setting [4]), 0.004 mL·h^−1·10^6 cells in data set [1] (setting [5]) and 0.003 mL·h^−1·10^6 cells in data set [1] (setting [6]). For the same molecule, the “In vitro intrinsic hepatic clearance, Mean ± SD” value in data set [1] (5 μmol/L) is 0.003 ± 0.001 mL·h^−1·10^6 cells. The “Metabolism by any of the different CYPs” value in data set [2] is “not metabolized”.
